These results are taken from ChEMBL document CHEMBL5715952 (Oncotarget, 2015).

A short description of test [1]: Inhibition of CSF1R/FLT3 in human RPMI-8226 cells assessed as reduction of cell growth incubated for 72 hrs by CellTiter 96 aqueous one solution cell proliferation assay. The class given is cell-based. Conditions: RPMI-8226, 72 h.
Test [2] in a line: Inhibition of CSF1R/FLT3 in Melphalan Resistant human RPMI-8226 cells assessed as reduction of cell growth incubated for 72 hrs by CellTiter 96 aqueous one solution cell proliferation assay. Conditions: Melphalan-resistant RPMI-8226 cell. Format: cell-based.
Test [3] is described as follows: Inhibition of CSF1R/FLT3 in human ANBL-6 cells assessed as reduction of cell growth incubated for 72 hrs by CellTiter 96 aqueous one solution cell proliferation assay. Format: cell-based. Conditions: ANBL-6, 72 h.
Test [4] is described as follows: Inhibition of CSF1R/FLT3 in bortezomib Resistant human RPMI-8226 cells assessed as reduction of cell growth incubated for 72 hrs by CellTiter 96 aqueous one solution cell proliferation assay. Format: cell-based. The conditions noted are these: Bortezomib-resistant RPMI-8226, 72 h.
Test [5] in a line: Ratio of IC50 for inhibition of CSF1R/FLT3 in human RPMI-8226 cells assessed as reduction of cell viability to IC50 for inhibition of CSF1R/FLT3 in human RPMI-8226/BR resistant cells assessed as reduction of cell viability. Conditions: condition multiple myeloma.
Test [6] is described as follows: Inhibition of CSF1R/FLT3 in human bortezomib-resistant ANBL6 cells assessed as reduction of cell growth incubated for 72 hrs by CellTiter 96 aqueous one solution cell proliferation assay. The class given is cell-based.
Test [7] is described as follows: Ratio of IC50 for inhibition of CSF1R/FLT3 in human ANBL6 cells assessed as reduction of cell viability to IC50 for inhibition of CSF1R/FLT3 in human ANBL6/BR resistant cells assessed as reduction of cell viability. The conditions noted are these: condition multiple myeloma.
Test [8] can be described thus: Ratio of IC50 for inhibition of CSF1R/FLT3 in human RPMI-8226 cells assessed as reduction of cell viability to IC50 for inhibition of CSF1R/FLT3 in human melphalan-resistant RPMI-8226 cells assessed as reduction of cell viability. The conditions noted are these: time 72 hrs; condition multiple myeloma.
The nature of test [9]: Inhibition of CSF1R/FLT3 in human U-266 cells assessed as reduction of cell growth incubated for 72 hrs by CellTiter 96 aqueous one solution cell proliferation assay. Conditions: U-266, 72 h. Format: cell-based.
Test [10] in a line: Ratio of IC50 for inhibition of PI3K/mTOR/ATM in human RPMI-8226 cells assessed as reduction of cell viability to IC50 for inhibition of PI3K/mTOR/ATM in human melphalan-resistant RPMI-8226 cells assessed as reduction of cell viability. Conditions: time 72 hrs; condition multiple myeloma.
Test [11] is described as follows: Inhibition of PI3K/mTOR/ATM in human U-266 cells assessed as reduction of cell growth incubated for 72 hrs by CellTiter 96 aqueous one solution cell proliferation assay. The conditions noted are these: U-266, 72 h. The class given is cell-based.
Test [12] in a line: Inhibition of PI3K/mTOR/ATM in bortezomib Resistant human RPMI-8226 cells assessed as reduction of cell growth incubated for 72 hrs by CellTiter 96 aqueous one solution cell proliferation assay. The class given is cell-based. The conditions noted are these: Bortezomib-resistant RPMI-8226, 72 h.
A short description of test [13]: Inhibition of PI3K/mTOR/ATM in human RPMI-8226 cells assessed as reduction of cell growth incubated for 72 hrs by CellTiter 96 aqueous one solution cell proliferation assay. The class given is cell-based. The conditions noted are these: RPMI-8226, 72 h.
Test [14] is described as follows: Inhibition of PI3K/mTOR/ATM in human ANBL-6 cells assessed as reduction of cell growth incubated for 72 hrs by CellTiter 96 aqueous one solution cell proliferation assay. The class given is cell-based. The conditions noted are these: ANBL-6, 72 h.
Test [15] can be described thus: Inhibition of PI3K/mTOR/ATM in human bortezomib-resistant ANBL6 cells assessed as reduction of cell growth incubated for 72 hrs by CellTiter 96 aqueous one solution cell proliferation assay. Format: cell-based.
Test [16] is described as follows: Ratio of IC50 for inhibition of PI3K/mTOR/ATM in human ANBL6 cells assessed as reduction of cell viability to IC50 for inhibition of PI3K/mTOR/ATM in human ANBL6/BR resistant cells assessed as reduction of cell viability. The conditions noted are these: condition multiple myeloma.
The nature of test [17]: Ratio of IC50 for inhibition of PI3K/mTOR/ATM in human RPMI-8226 cells assessed as reduction of cell viability to IC50 for inhibition of PI3K/mTOR/ATM in human RPMI-8226/BR resistant cells assessed as reduction of cell viability. The conditions noted are these: condition multiple myeloma.
Test [18] is described as follows: Inhibition of PI3K/mTOR/ATM in Melphalan Resistant human RPMI-8226 cells assessed as reduction of cell growth incubated for 72 hrs by CellTiter 96 aqueous one solution cell proliferation assay. The class given is cell-based. The conditions noted are these: Melphalan-resistant RPMI-8226 cell.

Broadly, the IC50 is the point on the concentration scale where inhibition reaches its midpoint. Regarding `CN(C)CC(=O)N1CCC(c2ccc(NC(=O)c3nc(C#N)c[nH]3)c(C3=CCCCC3)c2)CC1`, the concentration for half-maximal inhibition (IC50) in test [1], in [2], in test [3], in test [4], in test [6] and in [9] was 10 µM in each case. In addition, the “Ratio IC50” value in [5], in test [7] and in test [8] was 1 each time.

As to `O=c1cc(-c2cccc3c2Sc2ccccc2S3)oc(N2CCOCC2)c1` [KU-55933], the “Ratio IC50” value in [10], in [16] and in test [17] was 1 throughout. For the same compound, the half-maximal inhibitory concentration (IC50) in test [11], in test [12], in test [13], in test [14], in test [15] and in [18] was 10 µM in each case.
